Measurements published in PMC9457659, “Exploring The Relative Astringency of Tea Catechins and Distinct Astringent Sensation of Catechins and Flavonol Glycosides via an In Vitro Assay Composed of Artificial Oil Bodies” (Molecules, 2022).

target: T1, caleosin–histatin 3 fusion protein (Homo sapiens, UniProt P15516); assay: flotation of aggregated artificial oil bodies (emulsion layer thickness), light microscopy; assay type: binding; settings: equal volumes oil bodies and 2 mM catechin; 100 mM potassium phosphate, 50 mM KCl, pH 7.0; normalised to ECG; indirect, no caleosin-only control
T1 construct: gene HTN3; sesame caleosin lacking residues 101-115 fused with histatin 3; synthetic histatin DNA; E. coli BL21(DE3), insoluble pellet; about 29 kDa; with Caleosin (Peroxygenase)
T1 sequence (P15516 20-51): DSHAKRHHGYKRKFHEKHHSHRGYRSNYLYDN
T1 sequence (Q9SQ57 with tags, fused parts or gaps DEL101-115 partner): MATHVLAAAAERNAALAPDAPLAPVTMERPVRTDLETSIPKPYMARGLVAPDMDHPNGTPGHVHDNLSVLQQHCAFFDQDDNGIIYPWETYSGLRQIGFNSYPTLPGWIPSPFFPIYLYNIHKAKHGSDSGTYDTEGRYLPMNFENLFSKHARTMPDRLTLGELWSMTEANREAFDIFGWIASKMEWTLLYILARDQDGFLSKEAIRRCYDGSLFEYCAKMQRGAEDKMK

Row | Compound | relative astringency (%)
1 | Oc1cc(O)c2c(c1)O[C@H](c1cc(O)c(O)c(O)c1)[C@H](O)C2 [EGC, (−)-epigallocatechin] | aggregation of artificial oil bodies interacting with each catechin was examined
2 | Oc1cc(O)c2c(c1)O[C@H](c1ccc(O)c(O)c1)[C@H](O)C2 [EC, (−)-epicatechin] | aggregation of artificial oil bodies interacting with each catechin was examined
3 | Oc1cc(O)c2c(c1)O[C@H](c1ccc(O)c(O)c1)[C@@H](O)C2 [C, (+)-catechin] | aggregation of artificial oil bodies interacting with each catechin was examined
4 | Oc1cc(O)c2c(c1)O[C@@H](c1cc(O)c(O)c(O)c1)[C@H](O)C2 [GC, (−)-gallocatechin] | aggregation of artificial oil bodies interacting with each catechin was examined
5 | O=C(O[C@@H]1Cc2c(O)cc(O)cc2O[C@@H]1c1cc(O)c(O)c(O)c1)c1cc(O)c(O)c(O)c1 [EGCG, (−)-epigallocatechin gallate] | aggregation of artificial oil bodies interacting with each catechin was examined
6 | O=C(O[C@@H]1Cc2c(O)cc(O)cc2O[C@H]1c1ccc(O)c(O)c1)c1cc(O)c(O)c(O)c1 [CG, (−)-catechin gallate] | aggregation of artificial oil bodies interacting with each catechin was examined
7 | O=C(O[C@@H]1Cc2c(O)cc(O)cc2O[C@H]1c1cc(O)c(O)c(O)c1)c1cc(O)c(O)c(O)c1 [GCG, (−)-gallocatechin gallate] | aggregation of artificial oil bodies interacting with each catechin was examined

target: T1, caleosin–histatin 3 fusion protein; assay: atomic force and scanning electron microscopy of artificial oil bodies; assay type: binding; settings: 5 mM rutin; oil bodies in distilled water, dried on silicon wafer; oil bodies alone set as 100%; indirect, no caleosin-only control

Row | Compound | relative surface roughness (%)
8 | C[C@@H]1O[C@@H](OC[C@H]2O[C@@H](Oc3c(-c4ccc(O)c(O)c4)oc4cc(O)cc(O)c4c3=O)[C@H](O)[C@@H](O)[C@@H]2O)[C@H](O)[C@H](O)[C@H]1O [rutin] | a smooth surface was observed on artificial oil bodies complexed with rutin
